According to patent publication EP4810494A1, “HPK1 DEGRADATION AGENT AND USE THEREOF IN FIELD OF MEDICINE” (Haisco Pharmaceutical Group Co., Ltd., priority 2023, dated 2025):
Where a name gives a salt, the structure may show the parent alone. Read-outs that look alike come from different tables or passages of the source.

How the values were obtained:
HPK1 protein = target: T1, HPK1 protein (Homo sapiens, UniProt Q92918); test: Detection of HPK1 protein expression level in Jurkat cells (24 h); type: cell-based; settings: 24 hours incubation
T1 construct: host or cells: Jurkat cells
Protocol: Test example 4: Detection of HPK1 protein expression level in Jurkat cells (24 h)
Jurkat cells from ATCC were placed in a RPMI-1640 complete medium (supplemented with 10% FBS and 1% penicillin-streptomycin solution) and cultured at 37°C and 5% CO2. The cells in the logarithmic growth phase were collected, the cell density was adjusted to 5 × 10^5 cells/well with the culture medium, and the cells were added to a 6-well cell culture plate at a volume of 1 mL/well. The compound to be tested was prepared to 2-fold the final concentration, 1 mL of the compounds at different concentrations were added to administration wells, a medium containing 0.2% DMSO was added to control wells, and the plate was incubated at 37°C and 5% CO2 for 24 hours. The cells were collected into a 1.5 mL centrifuge tube, 30 µL of RIPA lysis buffer (containing 1X protease inhibitor cocktail) was added, and the cells were lysed on ice for 15 minutes and centrifuged at 12000 rpm/min at 4°C for 10 minutes. The supernatant was collected and the protein content was determined using the BCA method. The protein sample to be tested was diluted to 0.2 mg/mL, HPK1 was detected using a fully automated protein expression quantitative analyser (ProteinSimple), and the internal reference protein was β-actin (all antibodies were from CST). The software (Compass for SW) of the fully automated protein expression quantitative analyser was used to process the raw data and calculate the peak area after internal reference normalisation and the HPK1 degradation rate relative to the control group. The HPK1 degradation rate was calculated according to formula 4-1, where Aadministration well is the relative peak area of the administration group after internal reference normalisation, and Acontrol well is the relative peak area of the vehicle control group after internal reference normalisation. DC50 values were calculated using a four-parameter non-linear fitting model in Graphpad 8.3.0 software. HPK1_degradation % = 100−(Aadministration well/Acontrol well×100%) [formula] Table 4-1 Degradation activity of test compounds against HPK1 protein in Jurkat cells (24 h)

HPK1 kinase = target: T2, HPK1 kinase (Homo sapiens, UniProt Q92918); test: HPK1 kinase assay (1 mM ATP); type: biochemical
T2 construct: purchased Carna 07-410
T2 sequence (Q92918 1-346 limits assumed): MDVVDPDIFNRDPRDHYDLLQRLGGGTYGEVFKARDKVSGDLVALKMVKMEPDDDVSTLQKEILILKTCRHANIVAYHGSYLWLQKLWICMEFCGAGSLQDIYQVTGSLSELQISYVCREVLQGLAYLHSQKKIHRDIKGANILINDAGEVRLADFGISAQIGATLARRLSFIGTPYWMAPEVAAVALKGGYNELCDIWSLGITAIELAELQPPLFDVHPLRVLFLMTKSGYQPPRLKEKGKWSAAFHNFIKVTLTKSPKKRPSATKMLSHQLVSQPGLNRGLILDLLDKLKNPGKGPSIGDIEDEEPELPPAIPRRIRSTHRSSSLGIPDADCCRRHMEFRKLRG
Protocol: Test example 5: HPK1 kinase assay (1 mM ATP)
The kinase HPK1 (Carna, Cat.No 07-410) was prepared into 2× kinase solution using 1× kinase buffer. The substrate Fluorescein-PKC (Invitrogen, Cat. No. PV3506) and ATP (working concentration: 1 mM) (Sigma, Cat. No. 2383-5G) were prepared into 2× substrate solution using 1×kinase buffer. The detection reagent was diluted to 2-fold the final concentration using an antibody diluent. 100 nL of compounds at different concentrations and 5 µL of kinase solution were added to each well of a 384-well plate, and the mixture was incubated at room temperature for 10 minutes. After the incubation was completed, 5 µL of substrate solution was added to each well, and the resulting mixture was reacted at room temperature for 90 minutes. After the reaction was completed, 10 µL of detection reagent was added to each well to terminate the reaction, and the mixture was incubated at room temperature for 60 minutes. Fluorescence readings were detected using an Envision instrument with excitation at 320 nm and emission at 520 nm and 495 nm. IC50 value was calculated using XLFit excel add-in version 5.4.0.8 software. The calculation formula of the inhibition rate was shown in formula 5-1, wherein max is the Ratio of the DMSO control, min is the Ratio of the negative control without enzyme, and sample is the Ratio of the compound. Ratio = RFU520nm /RFU495nm [formula] Inhibition% = (max−sample)/(max−min) × 100% [formula] Table 5-1 Inhibitory activity of test compounds against HPK1 kinase

[1] = Pharmacokinetic test in mice; type: in vivo, ICR mice; settings: mouse, plasma
Protocol: Test example 6: Pharmacokinetic test in mice
Experimental objective: In this experiment, a single dose of test substances was administered to ICR mice intravenously and intragastrically, the concentrations of the test compounds in plasma of mice were measured, and the pharmacokinetic characteristics and bioavailability of the test compounds in mice were evaluated.
Experimental animals: Male ICR mice, 20-35 g, purchased from Chengdu Dossy Experimental Animals Co., Ltd. (SCXK (CHUAN) 2020-030).
Experimental method: On the day of the experiment, the ICR mice were randomly grouped according to their body weights. The animals were fasted but with water available overnight before the administration, and fed 4 h after the administration.
Sampling: Blood was taken from the orbits of the mice at specified time points, and placed in an EDTAK2 centrifuge tube. Centrifugation was performed at 5000 rpm at 4°C for 10 min, and the plasma was collected.
Time points for plasma collection in G1 and G1-2 groups: 0, 5 min, 15 min, 30 min, 1 h, 2 h, 4 h, 7 h, and 24 h.
Time points for plasma collection in G2 and G2-2 groups: 0, 5 min, 15 min, 30 min, 1 h, 2 h, 4 h, 7 h, and 24 h.
Before analysis and detection, all the samples were stored at -60°C or lower. The samples were analysed quantitatively by LC-MS/MS. Table 6-1 PK data of test compound drug in mice

[2] = Pharmacokinetic test in rats; type: in vivo, SD rats; settings: rat, plasma
Protocol: Test example 7: Pharmacokinetic test in rats
Experimental animals: Male SD rats, 180-200 g, purchased from Chengdu Dossy Experimental Animals Co., Ltd. with the laboratory animal production license number of SCXK (CHUAN) 2020-030.
Experimental design: on the day of the experiment, the SD rats were randomly grouped according to their body weights. The animals were fasted but with water available overnight before the administration, and fed 4 h after the administration.
Vehicle for intragastric administration: 5% Solutol+5% TPGS+30% PEG400+60% (20% SBE-β-CD)
Blood was taken from the orbits of the […] at specified time points, and placed in an EDTAK2 centrifuge tube. Centrifugation was performed at 5000 rpm for 10 min, and the plasma was collected.
Blood sampling time points for the intravenous administration group were: 0, 5 min, 15 min, 30 min, 1 h, 2 h, 4 h, 6 h, 8 h and 24 h; blood sampling time points for the intragastric administration group were: 0, 5 min, 15 min, 30 min, 1 h, 2 h, 4 h, 6 h, 8 h and 24 h. Before analysis and detection, all the samples were stored at - 60°C or lower. The samples were analysed quantitatively by LC-MS/MS. Table 7-1 PK data of test compound drug in rats

[3] = ATP working concentration: 1 mM

T1 sequence (Q92918 whole entry): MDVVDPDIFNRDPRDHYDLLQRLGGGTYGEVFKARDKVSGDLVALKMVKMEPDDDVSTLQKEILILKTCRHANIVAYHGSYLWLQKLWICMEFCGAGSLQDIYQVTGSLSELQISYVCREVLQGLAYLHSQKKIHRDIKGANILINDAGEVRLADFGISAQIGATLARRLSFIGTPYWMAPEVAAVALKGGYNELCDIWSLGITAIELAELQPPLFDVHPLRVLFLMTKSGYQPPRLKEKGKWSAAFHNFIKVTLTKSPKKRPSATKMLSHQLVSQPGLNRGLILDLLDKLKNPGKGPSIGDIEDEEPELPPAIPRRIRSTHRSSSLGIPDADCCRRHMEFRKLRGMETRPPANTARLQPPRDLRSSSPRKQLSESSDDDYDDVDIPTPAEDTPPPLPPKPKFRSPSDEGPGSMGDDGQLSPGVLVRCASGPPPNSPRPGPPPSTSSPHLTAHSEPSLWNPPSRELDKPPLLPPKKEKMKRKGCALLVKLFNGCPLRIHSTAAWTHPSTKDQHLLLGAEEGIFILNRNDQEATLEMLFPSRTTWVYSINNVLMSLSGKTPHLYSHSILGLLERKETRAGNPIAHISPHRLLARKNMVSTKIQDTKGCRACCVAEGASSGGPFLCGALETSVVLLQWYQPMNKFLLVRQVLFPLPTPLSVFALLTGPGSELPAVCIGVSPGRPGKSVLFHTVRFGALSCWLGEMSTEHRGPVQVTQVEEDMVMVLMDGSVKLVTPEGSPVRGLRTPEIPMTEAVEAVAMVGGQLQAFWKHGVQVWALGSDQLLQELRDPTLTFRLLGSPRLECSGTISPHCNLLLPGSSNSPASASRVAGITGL

| SMILES | IC50 (HPK1 kinase; [3]) | DC50 (HPK1 protein) | IC50 (HPK1 kinase) | other results |
| --- | --- | --- | --- | --- |
| O=C1CCN(c2cc3c(cc2F)N2CCN(CC4CC5(CCN(c6ccc(Nc7ccc(-c8cnc9cc(F)ccn89)c8c7C(=O)NC8)nc6)CC5)C4)C[C@H]2CC3)C(=O)N1 [Compound 16] |  |  |  | DC50 (HPK1 protein; read-out: DC50): < 20 nM; IC50 (HPK1 kinase; ATP working concentration: 1 mM, read-out: IC50): < 50 nM |
| N#Cc1ccn2c(-c3ccc(Nc4ccc(N5CCC6(CC5)CC(N5CCN7c8cc(F)c(N9CCC(=O)NC9=O)cc8CC[C@@H]7C5)C6)cn4)c4c3CNC4=O)cnc2c1 [Compound 48] | < 50 nM |  |  | clearance ([1]; IV, 1 mg/kg): 1.67 mL/min/kg; half-life ([1]; IV, 1 mg/kg): 318 min; AUC ([1]; po, i. g., 10 mg/kg): 25900 ng·h/mL; Cmax ([1]; po, i. g., 10 mg/kg): 2300 ng/mL; half-life ([1]; po, i. g., 10 mg/kg): 294 min |
| O=C1CC[C@H](NC(=O)c2cc3c(cc2F)N2CCN(CC4CCN(c5ccc(Nc6ccc(-c7cnc8cc(F)ccn78)c7c6C(=O)NC7)nc5)CC4)C[C@H]2CC3)C(=O)N1 [Trifluoroacetic acid salt of compound 8] | < 50 nM | < 20 nM |  | AUC ([1]; po, i. g., 10 mg/kg): 18300 ng·h/mL; Cmax ([1]; po, i. g., 10 mg/kg): 1460 ng/mL; half-life ([1]; po, i. g., 10 mg/kg): 263 min |
| CN(C)Cc1nc(Nc2ccc(-c3cnc4cc(F)ccn34)c3c2C(=O)NC3)ccc1C1CCN(CC2CCN(c3ccc(N4CCC(=O)NC4=O)c(F)c3)CC2)CC1 [Trifluoroacetic acid salt of compound 9] |  | < 20 nM | < 50 nM |  |
| O=C1CCN(c2cc3c(cc2F)N2CCN(C4CCN(c5ccc(Nc6ccc(-c7cnc8cc(F)ccn78)c7c6C(=O)NC7)nc5)CC4)C[C@@H]2CC3)C(=O)N1 [Trifluoroacetic acid salt of compound 13] |  | < 20 nM | < 50 nM |  |
| O=C1CCN(c2cc3c(cc2F)N2CCN(C4CCN(c5ccc(Nc6ccc(-c7cnc8cc(F)ccn78)c7c6C(=O)NC7)nc5)CC4)C[C@H]2CC3)C(=O)N1 [Trifluoroacetic acid salt of compound 14] |  | < 20 nM | < 50 nM |  |
| O=C1CCN(c2cc3c(cc2F)N2CCN(CC4CC5(CCN(c6ccc(Nc7ccc(-c8cnc9cc(F)ccn89)c8c7C(=O)NC8)nc6)CC5)C4)C[C@@H]2CC3)C(=O)N1 [Trifluoroacetic acid salt of compound 15] | < 50 nM | < 20 nM |  | AUC ([1]; po, i. g., 10 mg/kg): 23600 ng·h/mL; Cmax ([1]; po, i. g., 10 mg/kg): 1620 ng/mL; half-life ([1]; po, i. g., 10 mg/kg): 458 min |
| O=C1CCN(c2cc3c(cc2F)N2CCN(C4CC5(CCN(c6ccc(Nc7ccc(-c8cnc9cc(F)ccn89)c8c7C(=O)NC8)nc6)CC5)C4)C[C@@H]2CC3)C(=O)N1 [Trifluoroacetic acid salt of compound 20] |  | < 20 nM | < 50 nM | AUC ([1]; po, i. g., 10 mg/kg): 12600 ng·h/mL; Cmax ([1]; po, i. g., 10 mg/kg): 1010 ng/mL; half-life ([1]; po, i. g., 10 mg/kg): 331 min; clearance ([2]; IV, 2.5 mg/kg): 13.4 mL/min/kg; half-life ([2]; IV, 2.5 mg/kg): 287 min; AUC ([2]; po, i. g., 10 mg/kg): 5310 ng·h/mL; Cmax ([2]; po, i. g., 10 mg/kg): 382 ng/mL; half-life ([2]; po, i. g., 10 mg/kg): 317 min |
| O=C1CC[C@H](NC(=O)c2cc3c(cc2F)N2CCN(CC4CC5(CCN(c6ccc(Nc7ccc(-c8cnc9cc(F)ccn89)c8c7C(=O)NC8)nc6)CC5)C4)C[C@@H]2CC3)C(=O)N1 [Trifluoroacetic acid salt of compound 34] | < 50 nM | < 20 nM |  |  |
| O=C1CC[C@H](NC(=O)c2cc3c(cc2F)N2CCN(CC4CC5(CCN(c6ccc(Nc7ccc(-c8cnc9cc(F)ccn89)c8c7C(=O)NC8)nc6)CC5)C4)C[C@H]2CC3)C(=O)N1 [Trifluoroacetic acid salt of compound 36] | < 50 nM | < 20 nM |  |  |
| O=C1CC[C@H](NC(=O)c2cc3c(cc2F)N2CCN(C4CC5(CCN(c6ccc(Nc7ccc(-c8cnc9cc(F)ccn89)c8c7C(=O)NC8)nc6)CC5)C4)C[C@H]2CC3)C(=O)N1 [Trifluoroacetic acid salt of compound 37] | < 50 nM | < 20 nM |  |  |
| O=C1CC[C@H](NC(=O)c2cc3c(cc2F)N2CCN(C4CCN(c5ccc(Nc6ccc(-c7cnc8cc(F)ccn78)c7c6C(=O)NC7)nc5)CC4)C[C@H]2CC3)C(=O)N1 [Trifluoroacetic acid salt of compound 42] |  | < 20 nM | < 50 nM |  |
| N#Cc1ccn2c(-c3ccc(Nc4ccc(N5CCC6(CC5)CC(N5CCN7c8cc(F)c(N9CCC(=O)NC9=O)cc8CC[C@H]7C5)C6)cn4)c4c3CNC4=O)cnc2c1 [Trifluoroacetic acid salt of compound 43] | < 50 nM |  |  |  |
| O=C1CCN(c2cc3c(cc2F)N2CCN(C4CCC5(CC4)CCN(c4ccc(Nc6ccc(-c7cnc8cc(F)ccn78)c7c6C(=O)NC7)nc4)CC5)C[C@H]2CC3)C(=O)N1 [Trifluoroacetic acid salt of compound 44] | < 50 nM |  |  |  |
| N#Cc1ccn2c(-c3ccc(Nc4ccc(N5CCC(N6CCN7c8cc(F)c(N9CCC(=O)NC9=O)cc8CC[C@H]7C6)CC5)cn4)c4c3CNC4=O)cnc2c1 [Trifluoroacetic acid salt of compound 45] |  |  | < 50 nM |  |
| N#Cc1ccn2c(-c3ccc(Nc4ccc(N5CCC6(CCC(N7CCN8c9cc(F)c(N%10CCC(=O)NC%10=O)cc9CC[C@@H]8C7)CC6)CC5)cn4)c4c3CNC4=O)cnc2c1 [Trifluoroacetic acid salt of compound 46] | < 50 nM |  |  |  |
| O=C1CCN(c2cc3c(cc2F)N2CCN(C4CCC5(CC4)CCN(c4ccc(Nc6ccc(-c7cnc8cc(F)ccn78)c7c6C(=O)NC7)nc4)CC5)C[C@@H]2CC3)C(=O)N1 [Trifluoroacetic acid salt of compound 47] | < 50 nM |  |  |  |
